Assay results taken from patent US10246463B2, “Hypoxia-inducible factor 1 (HIF-1) inhibitors” (The United States of America, as represented by the …, priority 2015, dated 2019).
In brackets after ≈: the same amount, converted by molar mass. Several values for one entry are separate records, joined by “and”; a condition that tells them apart may be missing. Equal entries are not always repeated. Where two headings read alike, the source gives them in different places.

Legend:
[1] = tested on: P. falciparum W2 (chloroquine resistant); assay: Antimalarial activity, plasmodial LDH assay, W2 strain; type: cell-based; details: for IC50: Plasmodium falciparum, read-out: IC50 against W2
Protocol: (§1) The antimalarial activity was determined against chloroquine sensitive (D6) and chloroquine resistant (W2) strains of P. falciparum by measuring plasmodial LDH (lactate dehydrogenase) activity according to the procedure of Makler and Hinrichs (Am. J. Trop. Med. Hyg. 1993, 48:205). A suspension of red blood cells infected with D6 or W2 strain of P. falciparum (200 μL, with 2% parasitemia and 2% hematocrit in RPMI 1640 medium supplemented with 10% human serum and 60 μg/mL Amikacin) was added to the wells of a 96-well plate containing 10 μL of serially diluted samples (plant extracts, column fractions or pure compounds). The plate was incubated at 37° C., for 72 h in a modular incubation chamber with 90% N2, 5% O2, and 5% CO2. Parasitic LDH activity was determined by mixing 20 μL of the incubation mixture with 100 μL of the Malstat reagent and incubating at room temperature for 30 min Twenty microliters of a 1:1 mixture of NBT/PES (nitro blue tetrazolium/phenazine ethosulfate) (Sigma, St. Louis, Mo.) was then added and the plate was further incubated in the dark for 1 h. The reaction was stopped by adding 100 μL of a 5% acetic acid solution and the absorbance was read at 650 nm. Artemisinin and chloroquine were included as the drug controls. IC50 values were computed from the dose response curves of growth inhibition.

[2] = tested on: P. falciparum D6 (chloroquine sensitive); assay: Antimalarial activity, plasmodial LDH assay, D6 strain; type: cell-based; details: for IC50: Plasmodium falciparum, read-out: IC50 against D6
Protocol: as §1

32 bromodomain proteins = assay: commercial panel of 32 bromodomain proteins (DiscoverRx); type: binding
Text: (§2) In an effort to evaluate a broader range of potential activities of interest, compound 1 was screened against a commercial panel of 456 protein kinase enzymes and 32 bromodomain proteins (DiscoverRx, San Diego, Calif.), and it had no activity against any of these targets.

[3] = tested on: 456 protein kinase enzymes; assay: commercial panel of 456 protein kinase enzymes (DiscoverRx); type: binding
Text: as §2

[4] = pKa determination by UV-Vis analysis at varied pH; type: physicochemical; details: aqueous buffers at varied pH, 0.1% DMSO, read-out: pKa of the titratable proton
Protocol: The cuvettes were allowed to equilibrate for 1 h before a UV-Vis curve was obtained. The pKa for 1 was determined by fitting Δ abs at 394 and 440 nm to a polynomial curve, as described previously (Yapici et al., J. Am. Chem. Soc. 2015, 137:1073-1080).

[5] = tested on: HIF-1α activation in HCT116 cells; assay: HRE luciferase reporter of HIF-1α activation in HCT116 cells under anoxic conditions; type: cell-based; details: FIG. 7
Protocol: Activation was monitored via a hypoxia response element (HRE) luciferase signal. When HIF-1α is activated, it results in an increased HRE luciferase signal. […] Data were analyzed using an ordinary one-way ANOVA with Dunnett's multiple comparisons test (reference group: DMSO.H). * P≤0.05, ** P≤0.01, *** P≤0.0001.

NCI-60 cell line = NCI-60 cell line anticancer screen; type: cell-based; details: standard initial concentration of 40 μM
[6] = target: T1, p300 (CH1) / HIF-1α (C-TAD) interaction (Homo sapiens, UniProt Q09472+Q16665); assay: p300 CH1 / HIF-1α C-TAD binding assay (DELFIA, europium anti-GST); details: for IC50: dose-response format of the screening assay
T1 construct: GST-p300-CH1 (aa 323-423); synthetic biotinylated HIF-1αC-TAD (aa 786-826; Peptide Protein Research Ltd., Fareham, UK)
T1 sequence (Q09472 323-423): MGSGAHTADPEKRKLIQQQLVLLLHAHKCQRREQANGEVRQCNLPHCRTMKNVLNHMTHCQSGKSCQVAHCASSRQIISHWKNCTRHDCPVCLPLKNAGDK
T1 sequence (Q16665 786-826): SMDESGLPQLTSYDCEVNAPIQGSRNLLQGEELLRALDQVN
Protocol: Binding of soluble CH1 to the immobilized C-TAD was measured by the fluorescence of a europium-tagged anti-GST antibody.
Bound GST-CH1 was detected using a europium-labeled antibody to GST (PerkinElmer Life Sciences). […] Plates were washed four times with TBST (50 mM Tris, 150 mM NaCl, 0.05% Tween 20, pH 8.0) buffer. […] After 2 h, plates were washed four times in TBST. DELFIA enhancement solution (PerkinElmer Life Sciences) was added and plates were placed on a rocker for 30 min, before reading with a Victor3 plate reader (PerkinElmer Life Sciences) or a Pherastar Plate Reader (BMG Labtech), using the europium setting under time-resolved fluorescence. Values were corrected for background and expressed as a percentage of controls (DMSO) to provide the percentage of CH1 binding.

HCT116 cells = assay: CCK-8 cytotoxicity in HCT116 cells under hypoxic conditions; type: cell-based; details: 18 h treatment, hypoxic conditions (0.5% O2), FIG. 8
Text: Results are presented as the average cell viability number (% hypoxic control) of triplicate experiments ±S.E.M. (n=3-4).

Stability in NMR solvent = type: physicochemical
[7] = read-out: IC50, blocking binding of soluble CH1 to immobilized C-TAD

C[C@@H]1CC[C@H]2[C@@H](C)C(=O)O[C@@H]3O[C@@]4(C)CC[C@@H]1[C@]32OO4 [artemisinin, reference compound]
IC50 ([1]; W2, growth inhibition, 72 h): 0.0041 mg/L (≈ 0.0145 µM)
IC50 ([2]; D6, growth inhibition, 72 h): 0.0072 mg/L (≈ 0.0255 µM)

COc1ccc(C2(O)N=C3N=CC=C4c5ccccc5N=C2N43)cc1 (stereo not drawn) [Eudistidine A, eudistidine A]
activity against 32 bromodomain proteins (32 bromodomain proteins): no activity
% growth of W2 strain of P. falciparum ([1]; 528.89 ng/mL): 55%
% growth of W2 strain of P. falciparum ([1]; 1586.67 ng/mL): 1%
% growth of W2 strain of P. falciparum ([1]; 4760 ng/mL): 1%
IC50 ([1]; W2, growth inhibition, 72 h): 0.58 mg/L (≈ 1.76 µM)
activity against 456 protein kinase enzymes [3]: no activity
pKa [4]: 5.1 ± 0.1
% growth of D6 strain of P. falciparum ([2]; 528.89 ng/mL): 72%
% growth of D6 strain of P. falciparum ([2]; 1586.67 ng/mL): 6%
% growth of D6 strain of P. falciparum ([2]; 4760 ng/mL): 2%
IC50 ([2]; D6, growth inhibition, 72 h): 0.77 mg/L (≈ 2.33 µM)
blocking of HIF-1α activation (HRE luciferase signal) [5]: block HIF-1α activation
cytotoxic activity in NCI-60 screen (NCI-60 cell line): no significant cytotoxic activity
inhibition of HIF-1α binding to p300, comparison of salt forms and natural/synthetic material ([6]; FIGS. 5A-5E, 6A-6C, listed as natural eudistidine A, free base): similarly inhibit
IC50 [6, 7]: ~75 µM and 75 µM
CCK-8 cytotoxicity/growth inhibitory activity (HCT116 cells): only modest cytotoxicity/growth inhibitory activity

CCN(CC)CCCC(C)Nc1ccnc2cc(Cl)ccc12 (stereo not drawn) [chloroquine, reference compound]
IC50 ([1]; W2, 72 h): 0.161 mg/L (≈ 0.503 µM)
IC50 ([2]; D6, 72 h): 0.0154 mg/L (≈ 0.0481 µM)

COc1ccc(C2(c3nc(N)[nH]c3-c3ccc(O)cc3)N=C3N=CC=C4c5ccccc5N=C2N43)cc1 (stereo not drawn) [Eudistidine C, eudistidine C]
% growth of W2 strain of P. falciparum ([1]; 528.89 ng/mL): 75%
% growth of W2 strain of P. falciparum ([1]; 1586.67 ng/mL): 22%
% growth of W2 strain of P. falciparum ([1]; 4760 ng/mL): 6%
IC50 ([1]; W2, growth inhibition, 72 h): 0.9 mg/L (≈ 1.85 µM)
% growth of D6 strain of P. falciparum ([2]; 528.89 ng/mL): 91%
% growth of D6 strain of P. falciparum ([2]; 1586.67 ng/mL): 56%
% growth of D6 strain of P. falciparum ([2]; 4760 ng/mL): 9%
IC50 ([2]; D6, growth inhibition, 72 h): 1.7 mg/L (≈ 3.49 µM)
stability in DMSO-d6 (Stability in NMR solvent): somewhat unstable
IC50 [6, 7]: ~75 µM

OC1(c2ccccc2)N=C2N=CC=C3c4ccccc4N=C1N32 (stereo not drawn) [EA-1]
inhibition of CH1 (p300)/C-TAD (HIF-1α) interaction ([6]; even at high dose): no inhibition

O=c1nc2nccc3c4ccccc4nc1N23 [Eudistidine B, eudistidine B]
inhibition of CH1 (p300)/C-TAD (HIF-1α) interaction ([6]; at a high dose of 250 μM): no inhibition

O=C(O)c1ccc(C2(O)N=C3N=CC=C4c5ccccc5N=C2N43)cc1 (stereo not drawn) [EA-2]
IC50 ([6]; read-out: IC50, CH1 (p300)/C-TAD (HIF-1α) interaction (converted)): ~290 µM
